# Assays:
# Format in all cases: cell-based, human
# [1] = test system: SW620Mito cells (mitoxantrone-resistant); experiment: Neutral red uptake viability assay, SW620Mito; settings: 72 h; for survival rate: n = 3, ± SD; for IC50: n = 3, read-out: Cytotoxic activity IC50 (95% CI)
# Protocol: (§1) In general, compounds 4a–e exerted little or no cytotoxic effect on either SW620 or multidrug-resistant sublines even at 10 μM, with the remarkable exception of SW620C (cisplatin-selected variant of SW620) cells, which turned out to be relatively susceptible toward ferrocenyl 4a–c. […] This trend may reflect steric or electronic contributions to cellular uptake or interaction with intracellular targets. […] However, since E/Z isomeric data are currently available only for compound 4c, this hypothesis requires validation. To quantify this effect, IC50 values were determined (Table ). […]
# (§2) The normal lung fibroblast MRC-5 and colorectal adenocarcinoma SW620 cell lines used in this experiment were purchased from American Type Culture Collection (USA) via LGC […]
# (§3) Standards. Multidrug-resistant variants of SW620 cells were developed in our laboratory as described previously.10, 11 All cells were cultured under standard conditions (37°C, 5% CO2, 100% humidity) in high-glucose DMEM supplemented with GlutaMaxTM, HEPES (ThermoFisher Scientific, USA), and 10% fetal bovine serum (EURx, Poland). Cells were routinely tested for potential Mycoplasma contamination using the MycoProbe Mycoplasma Detection kit (R&D System, USA).
# (§4) In total, 104 cells in 100 µL of complete medium were plated per well of a 96-well plate and left overnight to allow cells to adhere to the surface. Then, the cells were exposed to a desired concentration of tested compound(s). Stock solutions were prepared in DMSO and used immediately. The final DMSO concentration was constant and nontoxic (0.1% v/v). After 70-h incubation, neutral red was added to the final concentration of 1 mM. After another 2 h, the medium was aspirated, and cells were washed twice with PBS. Dye was released using 100 µL of a solubilizer (1% acetic acid in 50% ethanol) on an orbital shaker (10 min). Absorbance was read at 540 nm using EnVision Multilabel Plate Reader (Perkin Elmer, USA). Results were expressed as % of control. The IC50 parameters were calculated using GraphPad Prism version 10 (GraphPad Software, Boston, Massachusetts USA). […]
# (§5) All experiments were performed in triplicate (n = 3).
# SW620D cells = experiment: Synergy determination (Bliss model, SynergyFinder), SW620D; settings: drug doxorubicin + additive; for synergy score: Bliss model
# Source text: (§6) In an ideal setting, the effect of cell exposure to a combination of a chemotherapeutic and an MDR inhibitor should be synergistic. […] The highest synergy scores identified an optimal concentration range where the combination exerted its maximal effect. […] In cisplatin-resistant SW620C cells, the low or lack of synergy observed for most compounds may be due to the additive effects of cisplatin and 4 rather than a true synergistic interaction. […]
# (§7) To evaluate the potential interactions between putative ABC inhibitors and anticancer drugs, we utilized the Bliss independence model, as implemented in the SynergyFinder web application.13, 14 Synergy scores and the most synergistic area scores were calculated based on the normalized dose–response matrices. A synergy score below −10 indicates likely […]
# (§8) above 10 is indicative of likely synergistic interactions.
# (§9) All experiments were performed at least three times, and the data were statistically analyzed
# [2] = test system: ABCB1-overexpressing SW620D cells; experiment: MDR reversal assay (ERP), SW620D; settings: for ERP value, doxorubicin + compound: SW620D (xlsx); for ERP = IC50(drug)MDR/IC50(drug+4)MDR: doxorubicin, SW620D
# Source text: (§10) We investigated the potency of 4a–e to inhibit ABC transporters (ABCB1, ABCC1, and ABCG2) by determining their enhancement of reversal potency (ERP) values. ERP represents fold changes in the IC50 values of anticancer drugs in multidrug-resistant cancer sublines (ABCB1-overexpressing SW620D, SW620E, and SW620V; ABCC1-overexpressing SW620M; ABCG2-overexpressing SW620C and SW620Mito) exposed to a combination of the investigated compounds and anticancer agents at equimolar concentrations, compared with values obtained with drugs alone (Tables S2 and S3 and Figure ).
# as §3
# (§11) In total, 104 cells in 100 µL of complete medium were plated per well of a 96-well plate and left overnight to allow cells to adhere to the surface. Then, the cells were exposed to a desired concentration of tested compound(s). Stock solutions were prepared in DMSO and used immediately. The final DMSO concentration was constant and nontoxic (0.1% v/v). After 70-h incubation, neutral red was added to the final concentration of 1 mM. After another 2 h, the medium was aspirated, and cells were washed twice with PBS. Dye was released using 100 µL of a solubilizer (1% acetic acid in 50% ethanol) on an orbital shaker (10 min). Absorbance was read at 540 nm using EnVision Multilabel Plate Reader (Perkin Elmer, USA). Results were expressed as % of control. The IC50 parameters were calculated using GraphPad Prism version 10 (GraphPad Software, Boston, Massachusetts USA).
# (§12) The enhancement of reversal potency (ERP) value determination
# (§13) For MDR reversal assays, cytotoxic agents were co-administered with compounds 4a–4e at equimolar concentrations in a range of 10 nM to 100 µM. IC₅₀ values were determined in ABCB1-overexpressing SW620 cell line variants. The enhancement of reversal potency (ERP) was calculated using the following formula: ERP = IC₅₀(drug)MDR / IC₅₀(drug + compound)MDR. All experiments were performed in triplicate (n = 3).
# SW620C cells = experiment: Synergy determination (Bliss model, SynergyFinder), SW620C; settings: drug cisplatin + additive; for synergy score: Bliss model
# Source text: as §6, §7, §8, §9
# [3] = test system: SW620E cells (etoposide-resistant); experiment: Neutral red uptake viability assay, SW620E; settings: 72 h; for survival rate: n = 3, ± SD; for IC50: n = 3, read-out: Cytotoxic activity IC50 (95% CI)
# Protocol: as §1, with “To evaluate this aspect, we investigated the viability of SW620 colon cancer cells and their multidrug-resistant variants (overexpressing ABCB1, ABCC1, and ABCG2) exposed to 1 and 10 μM 4a–e using a neutral red uptake assay (Table ). In” for “In”
# as §2, §3, §4, §5
# [4] = test system: ABCB1-overexpressing SW620E cells; experiment: MDR reversal assay (ERP), SW620E; settings: for ERP value, etoposide + compound: SW620E (xlsx); for ERP = IC50(drug)MDR/IC50(drug+4)MDR: etoposide, SW620E
# Source text: as §10, §3, §11, §12, §13
# [5] = test system: ABCC1-overexpressing SW620M cells; experiment: MDR reversal assay (ERP), SW620M; settings: for ERP value, methotrexate + compound: SW620M (xlsx); for ERP = IC50(drug)MDR/IC50(drug+4)MDR: methotrexate, SW620M
# Source text: as §10, §3, §11, §12, §13
# [6] = test system: ABCB1-overexpressing SW620V cells; experiment: MDR reversal assay (ERP), SW620V; settings: for ERP value, vincristine + compound: SW620V (xlsx); for ERP = IC50(drug)MDR/IC50(drug+4)MDR: vincristine, SW620V
# Source text: as §10, §3, §11, §12, §13
# MRC-5 fibroblasts = experiment: Neutral red uptake viability assay, MRC-5; settings: for survival rate: MRC-5, 10 μM, 72 h exposure, n = 3, ± SD; for Surviwal rate of MRC-5 at 10 microM: MRC-5, 10 microM (xlsx)
# Protocol: as §2, §3, §4, §5
Compound,survival rate ([1]; 1 μM) [%],survival rate ([1]; 10 μM) [%],IC50 [1] [µM],most synergistic area score (SW620D cells),synergy score (SW620D cells),"ERP value, doxorubicin + compound [2]",ERP = IC50(drug)MDR/IC50(drug+4)MDR [2],most synergistic area score (SW620C cells),synergy score (SW620C cells),survival rate ([3]; 1 μM) [%],survival rate ([3]; 10 μM) [%],IC50 [3] [µM],"ERP value, etoposide + compound [4]",ERP = IC50(drug)MDR/IC50(drug+4)MDR [4],"ERP value, methotrexate + compound [5]",ERP = IC50(drug)MDR/IC50(drug+4)MDR [5],"ERP value, vincristine + compound [6]",ERP = IC50(drug)MDR/IC50(drug+4)MDR [6],survival rate (MRC-5 fibroblasts) [%],Surviwal rate of MRC-5 at 10 microM (MRC-5 fibroblasts)
"O=C1N/C(=C\[c-]2cccc2)C(=O)N2CCC[C@@H]12.[Fe+2].c1cc[cH-]c1 [(S,Z)-4a]",98 ± 2.0,90 ± 3.1,> 100,20.51,6.30,2.90,2.90,4.33,–2.62,93 ± 0.8,94 ± 3.0,> 100,5.61,5.61,1.17,1.17,6.00,6.00,106 ± 13,
"O=C1N/C(=C\c2ccc(-[c-]3cccc3)cc2)C(=O)N2CCC[C@@H]12.[Fe+2].c1cc[cH-]c1 [(S,Z)-4d]",98 ± 0.9,93 ± 1.1,> 100,17.81,7.37,2.86,2.86,13.42,,97 ± 0.8,94 ± 2.5,> 100,5.84,5.84,0.84,0.84,12.7,12.7,101 ± 7,
"O=C1N/C(=C\c2ccccc2-[c-]2cccc2)C(=O)N2CCC[C@@H]12.[Fe+2].c1cc[cH-]c1 [(S,Z)-4b]",85 ± 1.0,85 ± 1.9,44.9,11.62,3.96,2.34,2.34,0.00,–2.78,93 ± 1.2,99 ± 0.8,> 100,2.22,2.22,1.84,1.84,9.57,9.57,92 ± 8.7,
"O=C1N/C(=C/c2cccc(-[c-]3cccc3)c2)C(=O)N2CCC[C@@H]12.[Fe+2].c1cc[cH-]c1 [(S,E)-4c]",94 ± 3.5,94 ± 1.1,> 100,1.68,–3.01,0.77,0.77,8.86,0.39,95 ± 2.1,91 ± 0.8,> 100,0.87,0.87,1.16,1.16,0.81,0.81,110 ± 10,
"O=C1N/C(=C/c2ccccc2)C(=O)N2CCC[C@@H]12 [(S,E)-4e]",94 ± 0.7,96 ± 0.8,,0.00,–6.63,0.77,0.77,3.89,–2.78,96 ± 2.5,99 ± 0.9,,0.88,0.88,1.08,1.08,1.34,1.37,117 ± 11,117_11
"O=C1N/C(=C\c2ccccc2)C(=O)N2CCC[C@@H]12 [(S,Z)-4e]",92 ± 1.3,94 ± 1.8,,0.00,–8.70,0.70,0.70,6.66,–3.14,94 ± 1.9,96 ± 4.4,,0.88,0.88,1.28,1.28,1.27,1.27,102 ± 6,102_6

# From paper PMC12257394, “Design, Synthesis, and Biological Evaluation of Ferrocenyl–Cyclo-(Gly‑L‑Pro) Hybrids Sensitizing Multidrug-Resistant Cancer Cells to Anticancer Agents” (ACS Medicinal Chemistry Letters, 2025)
